Experimental findings from US11266640B2, “Polycyclic compound acting as IDO inhibitor and/or IDO-HDAC dual inhibitor” (Hangzhou Innogate Pharma Co., Ltd., priority 2017, dated 2022) are described below.

A value given as a limit tells only on which side of the number the result lay.

T1 sequence (P14902 whole entry): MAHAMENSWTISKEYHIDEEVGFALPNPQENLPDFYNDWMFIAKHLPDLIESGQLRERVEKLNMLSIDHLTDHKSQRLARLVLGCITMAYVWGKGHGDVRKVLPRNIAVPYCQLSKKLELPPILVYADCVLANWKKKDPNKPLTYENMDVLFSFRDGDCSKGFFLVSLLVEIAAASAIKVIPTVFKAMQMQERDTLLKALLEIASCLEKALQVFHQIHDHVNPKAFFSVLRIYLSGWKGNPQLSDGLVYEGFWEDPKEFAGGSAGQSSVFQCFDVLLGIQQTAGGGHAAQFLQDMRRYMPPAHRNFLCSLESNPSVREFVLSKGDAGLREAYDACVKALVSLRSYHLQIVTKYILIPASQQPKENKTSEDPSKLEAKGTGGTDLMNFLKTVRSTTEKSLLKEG

The assay addresses T1, IDO (Homo sapiens, UniProt P14902).
T1 construct: endogenous in cells; host or cells: HeLa cells treated with IFNγ
Description: Hela cell-based IDO inhibitory activity test (IFNγ added). As to conditions: Hela cells with IFNγ, 48 hours incubation, OD 480 nm. How it is done: 2. Hela Cell-Based IDO Inhibitory Activity Test Method
The first step: cell plating. Prepare complete medium and mix well. Cell lines that are in good growth state are selected. Remove the cell culture flask from the incubator and check the cell name, media type and cell generation number on the bottle. The medium was discarded, digested with trypsin, and after digestion, the cells were neutralized with serum-containing medium, and the cells were blown to cause the cells to fall off. Pipette the cell suspension into a centrifuge tube and centrifuge at a speed of 800-1000 for 3-5 minutes. Aspirate the cell supernatant from the centrifuge tube. Add an appropriate volume of medium to the tube and gently blister to resuspend the cells. Count using a Vi-Cell XR cytometer. Adjust the cell suspension to the appropriate concentration. The cell suspension was added to a white-well 96-well plate at 80 μl/well according to the schematic below. The second step: preparation and addition of the compound. Compounds were formulated in DMSO at 600 μM and the compounds were diluted in DMSO according to a multiple of the following table to give 6 concentration gradients of the compound. The 200× compound prepared in DMSO was formulated into a 10× dilution solution in proportion to the corresponding cell culture medium. After 24 hours of cell seeding, 10 μL of 10× corresponding compound dilution and 10 μL of 10×IFNγ were added to each well. Incubate for 48 hours in a 37° C. incubator. The third step: detection and analysis. Cell morphology was observed under an inverted microscope. 80 μL of the supernatant was added to a 3894 plate, 10 μL of 6.1 N trichloroacetic acid was added to each well, shaken for 2 minutes, and placed in a 50-degree incubator for 30 minutes. Centrifuge, 2500 rpm for 10 minutes.
Take 70 μL of the supernatant and transfer to a 3635 UV plate, add 70 μL of the reaction solution, and shake for 2 minutes to make the reaction uniform. Use EnSpire (PE) to detect data with an OD of 480 nm. The cell culture plate 3903 was allowed to stand at room temperature for 30 minutes. 100 μL/well of the cell activity detecting reagent was added to the culture plate. Mix on a shaker for 2 minutes to induce cell lysis. The 96-well plate was allowed to stand at room temperature for 10 minutes to stabilize the luminescence signal. Paste the white base film on the bottom of the plate and tested with Flexstation3 plate (the relevant setting is: Illumination, integration time 500 ms). Record the experimental results obtained from the analysis.
The IC50 value is expressed in the following manner: […]
A word on the IC50: it is the concentration needed to halve the response being measured. Higher therefore signals weaker potency in that assay. On to `N#Cc1ccc(NC(=O)C[C@@H]2C[C@H]3CC(c4ccnc5ccc(F)cc45)C[C@H]3C2)cc1` (stereo partly drawn) [Compound 23], for which the half-inhibitory concentration (IC50) is ≤ 5 nM.
The same measure for `C[C@H](C(=O)Nc1ccc(Cl)cn1)[C@H]1C[C@H]2CC(c3ccnc4ccc(F)cc34)C[C@H]2C1` (single isomer, unassigned) [Compound 26B]: ≤ 5 nM.
For the compound `O=C(C[C@@H]1C[C@H]2CC(c3ccnc4ccc(F)cc34)C[C@H]2C1)Nc1ccc(Cl)cn1` (stereo partly drawn) [Compound 21], the IC50 fell in the range of 5 to 25 nM.
As for `C#Cc1ccc(NC(=O)C[C@@H]2C[C@@H]3CC(c4ccnc5ccc(F)cc45)=C[C@@H]3C2)cn1` [Compound 64], the IC50 is ≤ 5 nM.
For the compound `C#Cc1ccc(NC(=O)C[C@@H]2C[C@@H]3C[C@H](c4ccnc5ccc(F)cc45)C[C@@H]3C2)cn1` [Compound 66], the IC50 was ≤ 5 nM.
Turning to `O=C(Nc1ccc(Cl)cn1)C1C[C@@H]2C[C@H](c3ccnc4ccc(F)cc34)C[C@@H]2C1` (single isomer, unassigned) [Compound 107], the IC50 was > 100 nM.
The same measure for `O=C(Nc1ccc(Cl)cn1)/C(F)=C1/C[C@@H]2C[C@H](c3ccnc4ccc(F)cc34)C[C@@H]2C1` [Compound 105]: > 100 nM.
`CC(C(=O)Nc1ccc(F)c(Br)c1)[C@H]1C[C@H]2C[C@@H](c3ccnc4ccc(F)cc34)C[C@H]2C1` (stereo partly drawn) [Compound 33] gave an IC50 of 25 to 100 nM.
To `C#Cc1ccc(NC(=O)C[C@@H]2C[C@H]3CC(c4ccnc5ccc(F)cc45)C[C@H]3C2)cc1` (stereo partly drawn) [Compound 20] belongs ≤ 5 nM; to `O=C(C[C@@]1(F)C[C@H]2C[C@@H](c3ccnc4ccc(F)cc34)C[C@H]2C1)Nc1ccc(Cl)cc1` [Compound 59], 5 to 25 nM; to `C#Cc1ccc(NC(=O)C[C@@H]2C[C@H]3CC(c4ccnc5ccc(F)cc45)C[C@H]3C2)nc1` (stereo partly drawn) [Compound 25], ≤ 5 nM.
The same measure for `O=C(C[C@H]1C[C@H]2CC(c3ccnc4ccc(F)cc34)C[C@H]2C1)Nc1ccc(Cl)nc1` (stereo partly drawn) [Compound 18]: ≤ 5 nM; for `O=C(Nc1ccc(Cl)cc1)O[C@@H]1C[C@@H]2C[C@H](c3ccnc4ccc(F)cc34)C[C@@H]2C1` [Compound 106]: > 100 nM; for `Cn1ncc2cc(NC(=O)C[C@H]3C[C@H]4CC(c5ccnc6ccc(F)cc56)C[C@H]4C3)ccc21` (stereo partly drawn) [Compound 15]: > 100 nM.
To `N#Cc1ccc(NC(=O)C2([C@H]3C[C@H]4C[C@@H](c5ccnc6ccc(F)cc56)C[C@H]4C3)CC2)nc1` [Compound 98] belongs ≤ 5 nM.
As for `CC(C(=O)NC1CCOCC1)[C@H]1C[C@H]2C[C@@H](c3ccnc4ccc(F)cc34)C[C@H]2C1` (stereo partly drawn) [Compound 3], the half-inhibitory concentration (IC50) was > 100 nM.
To `N#Cc1ccc(NC(=O)C[C@@H]2C[C@@H]3CC(c4ccnc5ccc(F)cc45)=C[C@@H]3C2)cn1` (relative stereo) [Compound 101] belongs 5 to 25 nM; to `C#Cc1ccc(NC(=O)C[C@@H]2C[C@@H]3CC(c4ccnc5ccc(F)cc45)=C[C@@H]3C2)nc1` [Compound 63], ≤ 5 nM.
As for `CC#Cc1ccc(NC(=O)C(C)[C@H]2C[C@H]3C[C@@H](c4ccnc5ccc(F)cc45)C[C@H]3C2)nc1` (stereo partly drawn) [Compound 82], the IC50 is > 100 nM.
`Cn1nc(C2=C[C@@H]3C[C@H](CC(=O)Nc4ccc(Cl)cc4)C[C@@H]3C2)c2ccccc21` [Compound 55]: the IC50 was > 100 nM.
With `C#Cc1ccc(NC(=O)C[C@H]2C[C@H]3CC(c4ccnc5ccc(F)cc45)C[C@H]3C2)cc1` (stereo partly drawn) [Compound 19], the IC50 is ≤ 5 nM.
